We go through 2 compounds from US7744867B2, “PTPase inhibitors and method of using same” (The Cleveland Clinic Foundation, priority 2001, dated 2010).

Experiment [1] has as its target T1, intracellular MKP1 in WM9 cells (Homo sapiens, UniProt P28562).
T1 construct: endogenous in cells; host or cells: WM9 human melanoma cells
Kind of experiment: PTPase activity of anti-MKP1 immunocomplexes from WM9 cells. It counts as cell-based. The conditions noted are these: treated 5 minutes. The procedure: FIG. 6C. Sodium stibogluconate inactivates intracellular PRL-2 in WM9 human melanoma cells. A. Relative PTPase activities of anti-Flag immunocomplexes from WM9 cells transfected with the control vector (V) or Flag-PRL-2 expression construct and then treated with different amounts of sodium stibogluconate for 5 minutes B. Relative amounts of Flag-PRL-2 in the immunocomplexes as determined by SDS-PAGE/Western blotting. C. Relative PTPase activities of anti-MKP1 immunocomplexes from WM9 cells treated with different amounts of sodium stibogluconate for 5 minutes. Relative amounts of MKP1 in the immunocomplexes as determined by SDS-PAGE/Western blotting.
Flag-PRL-2 protein was detected in anti-Flag immunocomplexes from WM9 cells tranfected with an expression construct of Flag-PRL-2 but not in those from vector transfectants expected.

Experiment [2] concerns Stat1 tyrosine phosphorylation. Kind of experiment: IFNα-induced Stat1 tyrosine phosphorylation in cancer cell lines. The class given is cell-based, human. Here is the method:
Induction of Stat1 tyrosine phosphorylation by IFNα and/or sodium stibogluconate. For induction of Stat1 tyrosine phosphorylation by IFNα in the absence or presence of sodium stibogluconate, cells grown in 10% FCS RPMI 1640 medium at 37° C. were stimulated with IFNα (50 u/ml) for various time points and treated with or without sodium stibogluconate for 5 minutes prior to termination by lysing the cells in cold lysis buffer (1% NP-40; 50 mM Tris, pH 7.4; 100 mM NaCl; 1 mM EDTA, 10% glycerol, 10 mM sodium molybdic acid and 4 mM AEBSF).
Cell lysate preparation, SDS-PAGE, and Western blotting. Cell lysates were prepared by lysing cells in cold lysis buffer for 30 min and cleared by centrifuging at 14,000 rpm at 4° C. for 15 min. For SDS-PAGE, cell lysates were mixed with equal volume of 2×SDS-PAGE sample buffer, heated at 90° C. for 5 min and separated in 10% SDS-PAGE gels. Cellular proteins in SDS-PAGE gels were transferred to nitrocellulose membrane (Schleicher & Schuell), blocked in 5% milk, probed with antibodies and detected by using an enhanced chemiluminescence kit (ECL, Amersham).

The subject of a further experiment is TF-1 cells. Kind of experiment: Proliferation of TF-1 cells with GM-CSF and IFNα (MTT). The class given is cell-based, human. The conditions noted are these: at 50 μg/ml; GM-CSF 5-40 ng/ml. The procedure: FIG. 7 illustrates that sodium stibogluconate augments the opposite effects of GM-CSF and IFNα on TF-1 cell growth: A. Proliferation of TF-1 cells cultured in the presence of various amounts of GM-CSF and with or without sodium stibogluconate for three days was measured by MTT assays; B. Proliferation of TF-1 cells cultured in the presence of GM-CSF (50 ng/ml) and various amounts of IFNα with or without sodium stibogluconate (50 μg/ml) for three days was measured by MTT assays; C. The results in B shown as percentage inhibition of cell growth; D. Proliferation of TF-1 cells in the presence of GM-CSF (20 ng/ml) and various amounts of sodium stibogluconate for 6 days was measured by MTT assays; E. Proliferation of TF-1 cells in the presence of GM-CSF (20 ng/ml)/IFNα (1,000 u/ml) and various amounts of sodium stibogluconate for 6 days was measured by MTT assays.
The murine hematopoietic cell line Baf3 was maintained in RPMI 1640 medium supplemented with 10% fetal calf serum (FCS) and murine IL-3 (20 units/ml) as described previously. Human myeloid cell line TF-1 was maintained in RPMI 1640 supplemented with 10% FCS and 40 ng/ml of recombinant human GM-CSF as described previously. […] The cell numbers in proliferation assays were determined by an MTT assay or by microscopic cell counting as indicated.

In another experiment the target is T2, intracellular Flag-PRL-1 (Homo sapiens, UniProt Q93096).
T2 construct: expressed in transfected cells; host or cells: NIH3T3
Kind of experiment: PTPase activity of anti-Flag immunocomplexes from NIH3T3 transfectants. It counts as cell-based. The conditions noted are these: treated 5 min. Here is the method:
(§1) An expression construct of Flag-tagged PRL-1 or control vector was transfected into NIH3T3 cells which were then treated without or with sodium stibogluconate and used for immunoprecipitation assays with a monoclonal anti-Flag antibody. The immunocomplexes were analyzed by SDS-PAGE/Western blotting and PTPase assays. A Flag-tagged protein with a molecular weight approximately 22 kDa as expected for Flag-PRL-1 was detected in the immunocomplexes from untreated or sodium stibogluconate -treated Flag-PRL-1 transfectants but not in those from the control cells (FIG. 6A).
(§2) Glucatime inactivates intracellular PRL phosphatases. NIH3T3 stable transfectants of Flag-tagged PRL-1 (A), PRL-2 (B) and PRL-3 (C) were untreated or treated with glucatime for 5 minutes and then washed to remove cell free drug. The Flag-tagged PRLs were immunoprecipitated from the cells using a monoclonal anti-Flag antibody. The amounts of Flag-tagged PRLs in the immunocomplexes were quantified by SDS-PAGE/Western blotting with the anti-Flag antibody (the top panel). Activities of the immunocomplexes in dephosphorylating a synthetic phosphotyrosine peptide were determined by in vitro PTPase assays (the low panel).

The next experiment concerns the target T3, intracellular Flag-PRL-3 (Homo sapiens, UniProt O75365).
T3 construct: expressed in transfected cells; host or cells: NIH3T3
The description is as above. As to conditions: treated 5 min. It counts as cell-based. The procedure:
as §1, §2

Experiment [3] concerns the target T4, MKP1 (GST fusion protein) (Homo sapiens, UniProt P28562).
T4 construct: made in house; host or cells: E. coli DH5a
Kind of experiment: In vitro PTPase assay, dephosphorylation of a synthetic phosphotyrosine peptide. The class given is biochemical. The procedure:
In vitro PTPase activities were measured using the commercial protein tyrosine phosphatase assay kit (UBI) following established procedure. This assay measures the in vitro dephosphorylation of a synthetic phosphotyrosine peptide (R-R-L-I-E-D-A-E-pY-A-A-R-G). Briefly, 0.01 μg of GST/PTPase fusion protein was incubated in 50 μl of Tris buffer (10 mM Tris, pH 7.4) containing different concentrations of inhibitors or chemicals (0 to 1,000 μg/ml) at 22° C. for 10 minutes, followed by addition of 0.2 mM of the phosphotyrosine peptide and incubation at 22° C. for […]. 100 μl of Malachite Green solution was added and incubated for 5 minutes, and the absorbance at 660 nm was measured after 5 minutes.

The next experiment relates to Peer cells (T-ALL). Kind of experiment: Growth inhibition of human tumor cell lines. It counts as cell-based. The conditions noted are these: SS 12.5 μg/ml, IFNα 1,000 u/ml, alone or combined.
Another experiment deals with prostate cancer. The conditions noted are these: cited from earlier work.

T2 sequence (Q93096 whole entry): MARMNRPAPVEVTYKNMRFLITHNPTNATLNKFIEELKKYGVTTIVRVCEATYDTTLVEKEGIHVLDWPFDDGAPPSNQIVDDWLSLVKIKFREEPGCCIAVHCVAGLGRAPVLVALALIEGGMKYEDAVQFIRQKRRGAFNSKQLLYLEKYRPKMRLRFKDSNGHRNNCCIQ
T3 sequence (O75365 whole entry): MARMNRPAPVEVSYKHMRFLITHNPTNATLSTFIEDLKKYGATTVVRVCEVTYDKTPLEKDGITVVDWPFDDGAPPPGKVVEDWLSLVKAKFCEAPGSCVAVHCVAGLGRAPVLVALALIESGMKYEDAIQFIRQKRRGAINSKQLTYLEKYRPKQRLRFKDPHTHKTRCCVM
T1 sequence (P28562 whole entry): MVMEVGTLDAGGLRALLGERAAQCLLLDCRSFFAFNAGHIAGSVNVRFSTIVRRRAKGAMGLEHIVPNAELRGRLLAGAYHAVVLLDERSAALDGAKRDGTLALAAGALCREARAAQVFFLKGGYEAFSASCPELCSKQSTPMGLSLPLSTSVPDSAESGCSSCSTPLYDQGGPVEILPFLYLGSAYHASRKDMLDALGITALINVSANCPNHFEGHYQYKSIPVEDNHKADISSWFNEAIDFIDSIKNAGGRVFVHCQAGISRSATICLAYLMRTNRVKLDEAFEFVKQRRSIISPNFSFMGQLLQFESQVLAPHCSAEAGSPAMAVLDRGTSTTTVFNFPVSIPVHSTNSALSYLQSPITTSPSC
T4 sequence (P28562 whole entry, species assumed, the tested form may be a part): as the sequence (P28562 whole entry) above

On to `O.O.O.O.O.O.O.O.O.O=C([O-])[C@@H]1[O][Sb]2([O-])([O][Sb]34([OH])[O][C@H]([C@H](O)CO)[C@H]([O]3)[C@H](C(=O)[O-])[O]4)[O][C@H]([C@H](O)CO)[C@@H]1[O]2.[Na+].[Na+].[Na+]` [sodium stibogluconate], for which the “effect on MKP1 PTPase activity in WM9 cells” value in experiment [1] is recorded as “no marked effects”. Also, the “IFNα-induced Stat1 tyrosine phosphorylation relative to control” value in experiment [2] (DR cells, 10 μg/ml, 30 min post-stimulation) is reported as “approximately two”. Besides, the “Stat1 tyrosine phosphorylation by the drug itself” value in experiment [2] (DR cells, absence of IFNα) is “failed to induced”. The “IFNα-induced Stat1 tyrosine phosphorylation” value in experiment [2] (DU145 cells, 5 hours post-stimulation) is on record as “Enhanced”; in experiment [2] (WM9 cells, 5 hours post-stimulation) it was “Enhanced”; in experiment [2] (WM35 cells), “failed to enhance”; in experiment [2] (WiT49-N1 cells), “failed to enhance”. Besides, in the experiment on TF-1 cells, the “GM-CSF-induced proliferation of TF-1 cells” value is given as “augmented”. Further, the “PTPase activity of Flag-PRL-1 immunocomplexes from treated transfectants” value at intracellular Flag-PRL-1 is “little PTPase activities”. For the same compound, the “PTPase activity of Flag-PRL-3 immunocomplexes from treated transfectants” value at intracellular Flag-PRL-3 is reported as “lack of PTPase activity”. Moreover, the “inhibitory activity against MKP1” value in experiment [3] is reported as “no obvious inhibitory activity”.

As to IFNα, the “% of growth inhibition by day 6 (±s.d.)” value with Peer cells (T-ALL) was 86 (4) %. Further, the “patients in whom the cytokine is effective” value with prostate cancer is recorded as 5%.
